Active and inactive are the calls of the source.
What was measured:
[1] = Toxicity in mouse assessed as lethality at 50 mg/kg, ip; type: organism-based; conditions: in vivo
[2] = Genotoxicity in Salmonella typhimurium TA100 assessed as number of revertant at 75 ug by AMES test (reference value: 64.3 to 130.7); type: toxicity, Salmonella enterica subsp. enterica serovar Typhimurium; conditions: in vivo; dose 75 µg
[3] = Genotoxicity in Salmonella typhimurium TA98 assessed as number of revertant at 200 ug by AMES test (reference value: 8 to 8.3); type: toxicity, Salmonella enterica subsp. enterica serovar Typhimurium; conditions: in vivo; dose 200 µg
[4] = in vitro; conditions: mouse, microsomes
Description: Metabolic stability in mouse microsome assessed as half life

[5] = in vitro; conditions: mouse, microsomes; remark: listed apart in the source
Description: Metabolic stability in mouse microsome assessed as intrinsic clearance

[6] = Genotoxicity in Salmonella typhimurium TA100 assessed as number of revertant at 200 ug by AMES test (reference value: 64.3 to 130.7); type: toxicity, Salmonella enterica subsp. enterica serovar Typhimurium; conditions: in vivo; dose 200 µg
[7] = Genotoxicity in Salmonella typhimurium TA100 assessed as mutagenic index at 500 ug by AMES test; type: toxicity, Salmonella enterica subsp. enterica serovar Typhimurium; conditions: in vivo; dose 500 µg
[8] = Genotoxicity in Salmonella typhimurium TA98 assessed as number of revertant at 10 ug by AMES test (reference value: 8 to 8.3); type: toxicity, Salmonella enterica subsp. enterica serovar Typhimurium; conditions: in vivo; dose 10 µg
[9] = Protection index, ratio of TD50 for toxicity in ip dosed mouse to ED50 for anticonvulsant activity in ip dosed mouse; type: organism-based; conditions: in vivo, read-out: PI
[10] = Genotoxicity in Salmonella typhimurium TA100 assessed as mutagenic index at 200 ug by AMES test; type: toxicity, Salmonella enterica subsp. enterica serovar Typhimurium; conditions: in vivo; dose 200 µg
[11] = Toxicity in ip dosed mouse assessed as motor impairment by rotarod test; type: organism-based; conditions: in vivo
[12] = Genotoxicity in Salmonella typhimurium TA98 assessed as mutagenic index at 500 ug by AMES test; type: toxicity, Salmonella enterica subsp. enterica serovar Typhimurium; conditions: in vivo; dose 500 µg
[13] = Genotoxicity in Salmonella typhimurium TA98 assessed as number of revertant at 75 ug by AMES test (reference value: 8 to 8.3); type: toxicity, Salmonella enterica subsp. enterica serovar Typhimurium; conditions: in vivo; dose 75 µg
[14] = Genotoxicity in Salmonella typhimurium TA98 assessed as number of revertant at 750 ug by AMES test (reference value: 8 to 8.3); type: toxicity, Salmonella enterica subsp. enterica serovar Typhimurium; conditions: in vivo; dose 750 µg
[15] = Genotoxicity in Salmonella typhimurium TA100 assessed as number of revertant at 10 ug by AMES test (reference value: 64.3 to 130.7); type: toxicity, Salmonella enterica subsp. enterica serovar Typhimurium; conditions: in vivo; dose 10 µg
[16] = Genotoxicity in Salmonella typhimurium TA98 assessed as mutagenic index at 75 ug by AMES test; type: toxicity, Salmonella enterica subsp. enterica serovar Typhimurium; conditions: in vivo; dose 75 µg
[17] = system: Mus musculus; assay: Anticonvulsant activity in ip dosed mouse assessed as protection against current-induced seizure by maximal electroshock seizure test; type: functional
[18] = Genotoxicity in Salmonella typhimurium TA100 assessed as number of revertant at 500 ug by AMES test (reference value: 64.3 to 130.7); type: toxicity, Salmonella enterica subsp. enterica serovar Typhimurium; conditions: in vivo; dose 500 µg
[19] = Genotoxicity in Salmonella typhimurium TA98 assessed as mutagenic index at 750 ug by AMES test; type: toxicity, Salmonella enterica subsp. enterica serovar Typhimurium; conditions: in vivo; dose 750 µg
[20] = Genotoxicity in Salmonella typhimurium TA100 assessed as mutagenic index at 75 ug by AMES test; type: toxicity, Salmonella enterica subsp. enterica serovar Typhimurium; conditions: in vivo; dose 75 µg
[21] = Genotoxicity in Salmonella typhimurium TA100 assessed as mutagenic index at 10 ug by AMES test; type: toxicity, Salmonella enterica subsp. enterica serovar Typhimurium; conditions: in vivo; dose 10 µg
[22] = Genotoxicity in Salmonella typhimurium TA98 assessed as mutagenic index at 10 ug by AMES test; type: toxicity, Salmonella enterica subsp. enterica serovar Typhimurium; conditions: in vivo; dose 10 µg
[23] = Genotoxicity in Salmonella typhimurium TA100 assessed as mutagenic index at 750 ug by AMES test; type: toxicity, Salmonella enterica subsp. enterica serovar Typhimurium; conditions: in vivo; dose 750 µg
[24] = target: T1, 5-hydroxytryptamine receptor 1A (Homo sapiens) (UniProt P08908); assay: Binding affinity to 5-HT1A (unknown origin) at 10^-5 M; conditions: dose 1.0 10^-5M
T1 sequence (whole entry): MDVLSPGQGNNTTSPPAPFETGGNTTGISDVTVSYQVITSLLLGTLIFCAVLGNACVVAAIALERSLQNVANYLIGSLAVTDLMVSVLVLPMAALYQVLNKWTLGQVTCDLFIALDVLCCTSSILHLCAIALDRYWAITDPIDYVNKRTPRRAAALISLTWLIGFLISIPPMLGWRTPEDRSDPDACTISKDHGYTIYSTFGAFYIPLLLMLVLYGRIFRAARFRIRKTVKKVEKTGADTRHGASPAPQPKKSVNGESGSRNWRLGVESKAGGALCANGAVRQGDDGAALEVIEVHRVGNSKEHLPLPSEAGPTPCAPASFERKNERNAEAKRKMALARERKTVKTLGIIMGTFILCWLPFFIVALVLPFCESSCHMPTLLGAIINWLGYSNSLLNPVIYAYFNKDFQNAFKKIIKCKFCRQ

[25] = Genotoxicity in Salmonella typhimurium TA98 assessed as mutagenic index at 200 ug by AMES test; type: toxicity, Salmonella enterica subsp. enterica serovar Typhimurium; conditions: in vivo; dose 200 µg
[26] = Drug metabolism in mouse microsome assessed as formation of monohydroxylated metabolite; type: ADME; conditions: microsomes
[27] = Genotoxicity in Salmonella typhimurium TA98 assessed as number of revertant at 500 ug by AMES test (reference value: 8 to 8.3); type: toxicity, Salmonella enterica subsp. enterica serovar Typhimurium; conditions: in vivo; dose 500 µg
[28] = Genotoxicity in Salmonella typhimurium TA100 assessed as number of revertant at 750 ug by AMES test (reference value: 64.3 to 130.7); type: toxicity, Salmonella enterica subsp. enterica serovar Typhimurium; conditions: in vivo; dose 750 µg
[29] = system: Clostridioides difficile; assay: Antimicrobial activity against clinical strain Clostridium difficile assessed as reduction in bacterial growth at 0.195 to 100 ug/ml by disk diffusion method; type: organism-based; conditions: in vivo, dose 0.195-100 µg/ml
[30] = system: Escherichia coli; assay: Antimicrobial activity against Escherichia coli ATCC 35218 assessed as reduction in bacterial growth at 0.195 to 100 ug/ml by serial dilution method; type: organism-based; conditions: in vivo, dose 0.195-100 µg/ml
[31] = system: Staphylococcus aureus; assay: Antimicrobial activity against Staphylococcus aureus ATCC 25923 assessed as reduction in bacterial growth at 0.195 to 100 ug/ml by serial dilution method; type: organism-based; conditions: in vivo, dose 0.195-100 µg/ml
[32] = system: Staphylococcus aureus; assay: Antimicrobial activity against clinical strain Staphylococcus aureus assessed as reduction in bacterial growth at 0.195 to 100 ug/ml by serial dilution method; type: organism-based; conditions: in vivo, dose 0.195-100 µg/ml
[33] = Antioxidant activity assessed as DPPH radical scavenging activity at 125 to 1000 uM by microplate method; type: functional; conditions: dose microM 125-1000
[34] = system: Mus musculus; assay: Antiallodynic activity in mouse model of OXA-induced peripheral neuropathy assessed as mean latency time to nocifensive response at 18 mg/kg, ip administered after 3 hrs of OXA stimulation and measured after 1 hr by cold plate method (reference value: 59.76 +/- 0.16 sec); type: functional
[35] = system: Mus musculus; assay: Antiallodynic activity in mouse model of OXA-induced peripheral neuropathy assessed as mean latency time to nocifensive response at 18 mg/kg, ip administered after 7 days of OXA stimulation and measured after 1 hr by cold plate method (reference value: 57.64 +/- 1.267 sec); type: functional
[36] = system: Mus musculus; assay: Antiallodynic activity in mouse model of OXA-induced peripheral neuropathy assessed as mean paw withdrawal threshold at 18 mg/kg, ip administered after 3 hrs of OXA stimulation and measured after 1 hr by Von-frey method (reference value: 3.144 +/- 0.169 g); type: functional
[37] = system: Salmonella enterica; assay: Antimicrobial activity against Salmonella enterica ATCC 51957 assessed as reduction in bacterial growth at 0.195 to 100 ug/ml by serial dilution method; type: organism-based; conditions: in vivo, dose 0.195-100 µg/ml
[38] = system: Hoylesella loescheii; assay: Antimicrobial activity against Prevotella loescheii ATCC 15930 assessed as reduction in bacterial growth at 0.195 to 100 ug/ml by disk diffusion method; type: organism-based, DSM 19665 = JCM 12249 = ATCC 15930; conditions: in vivo, dose 0.195-100 µg/ml
[39] = system: Enterococcus faecalis; assay: Antimicrobial activity against Enterococcus faecalis ATCC 29212 assessed as reduction in bacterial growth at 0.195 to 100 ug/ml by serial dilution method; type: organism-based; conditions: in vivo, dose 0.195-100 µg/ml
[40] = target: T2, 5-hydroxytryptamine receptor 1A (Homo sapiens, UniProt P08908); assay: Binding affinity to 5-HT1A (unknown origin)
T2 sequence (P08908 whole entry): T1 sequence (whole entry)

[41] = Toxicity in mouse assessed as lethality at 30 mg/kg, ip; type: organism-based; conditions: in vivo
[42] = Toxicity in mouse assessed as lethality at 10 mg/kg, ip; type: organism-based; conditions: in vivo
[43] = Antimicrobial activity against clinical strain Bifidobacterium assessed as reduction in bacterial growth at 0.195 to 100 ug/ml by disk diffusion method; conditions: dose 0.195-100 µg/ml
[44] = system: Escherichia coli; assay: Antimicrobial activity against Escherichia coli ATCC 25922 assessed as reduction in bacterial growth at 0.195 to 100 ug/ml by serial dilution method; type: organism-based; conditions: in vivo, dose 0.195-100 µg/ml
[45] = system: Mus musculus; assay: Antiallodynic activity in mouse model of OXA-induced peripheral neuropathy assessed as mean paw withdrawal threshold at 18 mg/kg, ip administered after 7 days of OXA stimulation and measured after 1 hr by Von-frey method (reference value: 3.192 +/- 0.181 g); type: functional
[46] = system: Bacteroides fragilis; assay: Antimicrobial activity against Bacteroides fragilis ATCC 25285 assessed as reduction in bacterial growth at 0.195 to 100 ug/ml by disk diffusion method; type: organism-based; conditions: in vivo, dose 0.195-100 µg/ml

Cc1ccc(OCCCN2CCCC(O)C2)c(C)c1 (racemic)
Activity [1]: Non-Toxic | Activity [2]: 69.5 | Activity [3]: 6.7 | half-life [4]: 28.6 min | microsomal CLint [5]: 60.5 µL/min/mg | Activity [6]: 88.5 | Activity_index [7]: 1.1 | Activity [8]: 6.3 | selectivity ratio [9]: 3.09 | Activity_index [10]: 1.2 | TD50 [11]: 108 mg/kg | Activity_index [12]: 1 | Activity [13]: 8 | Activity [14]: 3.3 | Activity [15]: 89.5 | Activity_index [16]: 0.8 | ED50 [17]: 34.8 mg/kg | Activity [18]: 81 | Activity_index [19]: 1 | Activity_index [20]: 1 | Activity_index [21]: 1.2 | Activity_index [22]: 0.4 | Activity_index [23]: 53.4 | Activity [24]: inactive | Activity_index [25]: 1.2 | Drug metabolism [26]: Metabolite_Detected | Activity [27]: 4.7 | Activity [28]: 3869.5

Cc1cc(C)c(OCCCN2CCCC(O)C2)c(C)c1.Cl (racemic)
Activity [29]: Non-Toxic | Activity [30]: Non-Toxic | Activity [31]: Non-Toxic | Activity [32]: Non-Toxic | Activity [33]: inactive | half-life [4]: 38.9 min | microsomal CLint [5]: 44.5 µL/min/mg | selectivity ratio [9]: 3.86 | Time [34]: 18.18 s | TD50 [11]: 70.2 mg/kg | Time [35]: 10.65 s | Activity [36]: 1.958 g | Activity [37]: Non-Toxic | Activity [38]: Non-Toxic | Activity [39]: Non-Toxic | Ki [40]: 3.39 µM | ED50 [17]: 18.2 mg/kg | Activity [41]: Non-Toxic | Activity [42]: Non-Toxic | Activity [43]: Non-Toxic | Activity [44]: Non-Toxic | Activity [45]: 1.947 g | Activity [46]: Non-Toxic | Drug metabolism [26]: Metabolite_Detected
